Experimental data reported in PubChem BioAssay (NCI).
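Step 1: Grow cells in 96-well plates. Step 2: Expose to compound for 48 hours at 5 concentrations. Step 3: Interpolate endpoints linearly; if unreached, use highest concentration. The concentration for full growth arrest is given as TGI.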

Legend:
Assay in all cases: inhibition of tumour cell growth, NCI panel, 48 h
HCC-2998 colon = system: HCC-2998 colon
HL-60(TB) leukemia = system: HL-60(TB) leukemia
HS 578T breast = system: HS 578T breast
MDA-MB-231 breast = system: MDA-MB-231 breast
SK-MEL-28 melanoma = system: SK-MEL-28 melanoma
SK-OV-3 ovarian = system: SK-OV-3 ovarian
SNB-75 CNS = system: SNB-75 CNS
SW-620 colon = system: SW-620 colon
U251 CNS = system: U251 CNS
UO-31 renal = system: UO-31 renal

Row | Compound | TGI (HCC-2998 colon) [µM] | TGI (HL-60(TB) leukemia) [µM] | TGI (HS 578T breast) [µM] | TGI (MDA-MB-231 breast) [µM] | TGI (SK-MEL-28 melanoma) [µM] | TGI (SK-OV-3 ovarian) [µM] | TGI (SNB-75 CNS) [µM] | TGI (SW-620 colon) [µM] | TGI (U251 CNS) [µM] | TGI (UO-31 renal) [µM]
1 | CC(C)(C)c1cc(C(=O)/C=C/C=C/c2ccccc2)cc(C(C)(C)C)c1O | 28.2 | 8.88 | > 100 | 49 | > 100 | > 100 | 67.2 | 41.4 | 33.5 | > 77.3
2 | Cc1ccc(-c2cc(-c3ccc(Cl)cc3)nc(/N=C3\C(=O)N(CN4CCOCC4)c4ccc(Cl)cc43)n2)cc1 | 36.5 | 41.4 | > 100 | > 100 | > 100 | 84.4 | 97.1 | > 100 | 36.3 | 60.3
3 | COc1cccc2c1C(=O)c1c(O)c3c(c(O)c1C2=O)C[C@@](O)(C(=O)CO)C[C@@H]3OC1CC(N)C(OC)C(C)O1 (stereo not given in full) | 0.763 | 0.388 | 1.14 | 7.01 | 1.9 | 4.41 | 0.346 | 4.05 | 0.441 | 1.41
4 | CC#C[P+](c1ccccc1)(c1ccccc1)c1ccccc1 | 14.5 | 13.9 | – | – | 25 | 38.5 | 12 | – | 11.8 | 76.4
5 | COc1ccc(-c2c(C#N)c(O)n(NS(=O)(=O)c3ccc(C)cc3)c(=O)c2C#N)cc1 | > 100 | > 100 | > 100 | > 100 | > 100 | > 100 | > 100 | > 100 | > 100 | –
6 | CCOC(=O)c1ccc(NC(=O)O/N=C(/Cl)CCl)cc1 | – | 68.7 | > 100 | > 100 | > 100 | > 100 | > 100 | > 100 | > 100 | > 100
7 | CC(=O)Nc1ccc2cc(C)c(=O)[nH]c2n1 | – | > 100 | > 100 | > 100 | > 100 | > 100 | > 100 | > 100 | > 100 | > 100
8 | N#CC1(C#N)C2CCCCC23OC(=N)C1(C#N)C(c1ccccc1)O3 (stereo not given) | 29 | – | 4.76 | 33.8 | – | > 100 | 11.7 | > 100 | 69.6 | > 100
9 | O=C(/C=C/C=C/c1ccccc1)c1ccc2c(c1)CCCC2 | 63.3 | – | 30.4 | > 100 | > 100 | > 100 | – | > 100 | > 100 | > 100
10 | O=C(NC(CO)Cc1ccc(Oc2cc(CC(CO)NC(=O)OCc3ccccc3)ccc2OC(=O)OCc2ccccc2)cc1)OCc1ccccc1 (stereo not given) | 30.5 | 41.7 | 28.4 | – | 42.9 | 69.8 | 51.1 | > 100 | – | > 100
11 | C[C@H]1C2Cc3cc(N)ccc3[C@@]1(C)CCN2CCc1ccccc1 | 21.7 | 87.7 | > 100 | > 100 | > 100 | > 100 | > 100 | > 100 | > 100 | > 100
12 | O=C1/C(=C/c2ccccc2)NC(=S)N1CN1CCOCC1 | – | – | > 100 | > 100 | > 100 | > 100 | > 100 | > 100 | > 100 | > 100
13 | CC1C[C@]2(C)C(=O)Nc3ccccc3[C@@H]2Nc2ccccc21 (stereo not given in full) | 88.5 | 61 | 72.9 | 36 | 95.5 | – | > 100 | > 100 | – | > 100
14 | CC1(C)OC2C(O)CN3CCS[C@H]3C2O1 (stereo not given in full) | > 100 | > 100 | > 100 | > 100 | > 100 | > 100 | > 100 | > 100 | > 100 | > 100
15 | C[C@@H]1C[C@](O)([C@@H](C)Cl)C(=O)O[C@@H]2CCN3CC=C(COC(=O)[C@]1(C)O)[C@H]23 | > 100 | > 100 | > 100 | > 100 | > 100 | > 100 | > 100 | > 100 | > 100 | > 10
16 | CC(C)=CCc1c(O)ccc2ccc(=O)oc12 | > 100 | > 80.6 | – | – | > 100 | > 100 | > 100 | > 100 | > 100 | > 95.1
17 | CSc1nncc2[nH]c(C)nc12 | > 100 | > 100 | – | > 100 | > 100 | > 100 | > 100 | > 100 | > 100 | > 100
18 | NCCCNCCCCNCCCN | > 76.7 | 15.2 | 98 | > 60.8 | – | > 53.9 | > 100 | 14 | > 63.7 | 5.02
19 | Cn1c(N)c2c3c(sc2nc1=O)CCCC3 | > 75 | > 75 | > 75 | > 75 | > 75 | – | > 75 | > 75 | > 75 | > 75
20 | CC(/C=N\NC(=S)N1CCCCC1)=N/NC(=S)N1CCCCC1 | 11.7 | – | 14.7 | 11.1 | 18.1 | 6.08 | 8.08 | 14.7 | 13 | 7.19
21 | Cn1c(=O)c2c(no[n+]2[O-])c2ccccc21 | 27.3 | – | 62.2 | 48 | – | 77 | 35.9 | 41.2 | 34.7 | 55
22 | Cc1cc(OCc2nnc3n2N=C(c2cc(F)c(Cl)cc2Cl)/C(=C/c2ccc(Cl)cc2)S3)ccc1Cl | 40.3 | 21.3 | 46.1 | > 100 | 54.9 | > 100 | – | 38.5 | 43.4 | > 100
23 | S=c1[nH]n2c(COc3cccc(OCc4nnc5sc(=S)[nH]n45)c3)nnc2s1 | > 100 | 72.1 | > 100 | > 100 | > 100 | > 100 | > 100 | > 100 | > 100 | > 100
